Results reported in the supplement of paper PMC9663587.

Tests used:
THZ531 = compound: CN(C)C/C=C/C(=O)Nc1ccc(C(=O)N2CCC[C@@H](Nc3ncc(Cl)c(-c4c[nH]c5ccccc45)n3)C2)cc1 [THZ531]; experiment: GR value, 72 h; higher = faster growth (1 = untreated, <0 = killing);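 further: breast cancer and non-malignant breast epithelial lines, nine half-log doses, viable cells counted by Hoechst and LIVE/DEAD dye imaging versus time-zero plates and DMSO controls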
Neratinib/HKI272 = compound: CCOc1cc2ncc(C#N)c(Nc3ccc(OCc4ccccn4)c(Cl)c3)c2cc1NC(=O)/C=C/CN(C)C [Neratinib/HKI272]; experiment: as above
Flavopiridol [1] = compound: T1, CN1CC[C@H](c2c(O)cc(O)c3c(=O)cc(-c4ccccc4Cl)oc23)[C@H](O)C1 [Flavopiridol]; experiment: as above
THZ1 = compound: CN(C)C/C=C/C(=O)Nc1ccc(C(=O)Nc2cccc(Nc3ncc(Cl)c(-c4c[nH]c5ccccc45)n3)c2)cc1 [THZ1]; experiment: as above
[2] = compound: CC(=O)c1c(C)c2cnc(Nc3ccc(N4CCNCC4)cn3)nc2n(C2CCCC2)c1=O; experiment: as above
YKL-5-124 = compound: C=CC(=O)Nc1ccc(C(=O)Nc2[nH]nc3c2CN(C(=O)N[C@H](CN(C)C)c2ccccc2)C3(C)C)cc1 [YKL-5-124]; experiment: as above
BSJ-03-123 = compound: CC(=O)c1c(C)c2cnc(Nc3ccc(N4CCN(CCOCCOCCOCCNC(=O)COc5cccc6c5C(=O)N(C5CCC(=O)NC5=O)C6=O)CC4)cn3)nc2n(C2CCCC2)c1=O [BSJ-03-123]; experiment: as above
LEE011/Ribociclib = compound: CN(C)C(=O)c1cc2cnc(Nc3ccc(N4CCNCC4)cn3)nc2n1C1CCCC1 [LEE011/Ribociclib]; experiment: as above
[3] = compound: CCN1CCN(Cc2ccc(Nc3ncc(F)c(-c4cc(F)c5nc(C)n(C(C)C)c5c4)n3)nc2)CC1; experiment: as above
[4] = compound: CCc1cnn2c(NCc3ccc[n+]([O-])c3)cc(N3CCCC[C@H]3CCO)nc12; experiment: as above
Flavopiridol [5] = compound: T1, Flavopiridol; experiment: increase in dead-cell fraction, 72 h; higher = more death;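 further: breast cancer cell lines in 384-well plates, stained with Hoechst plus LIVE/DEAD far red dye and imaged, cells above an LDR intensity threshold counted dead, Hoechst-negative corpses included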
[6] = compound: CCN1CCN(Cc2ccc(Nc3ncc(F)c(-c4cc(F)c5nc(C)n(C(C)C)c5c4)n3)nc2)CC1; experiment: as above

MDAMB415
GR value (THZ531; 0.0001 µM): 0.975 GR
GR value (THZ531; 0.0003162 µM): 0.9 GR
GR value (THZ531; 0.001 µM): 0.875 GR
GR value (THZ531; 0.003162 µM): 1.05 GR
GR value (THZ531; 0.01 µM): 0.946 GR
GR value (THZ531; 0.03162 µM): 0.731 GR
GR value (THZ531; 0.1 µM): 0.0348 GR
GR value (THZ531; 0.3162 µM): -0.33 GR
GR value (THZ531; 1 µM): -0.343 GR
GR value (Neratinib/HKI272; 0.0003162 µM): 1.06 GR
GR value (Neratinib/HKI272; 0.001 µM): 1.08 GR
GR value (Neratinib/HKI272; 0.003162 µM): 1.13 GR
GR value (Neratinib/HKI272; 0.01 µM): 1.1 GR
GR value (Neratinib/HKI272; 0.03162 µM): 1.06 GR
GR value (Neratinib/HKI272; 0.1 µM): 0.989 GR
GR value (Neratinib/HKI272; 0.3162 µM): 0.889 GR
GR value (Neratinib/HKI272; 1 µM): 0.737 GR
GR value (Neratinib/HKI272; 3.162 µM): 0.0984 GR
GR value (Flavopiridol [1]; 0.0001 µM): 1 GR
GR value (Flavopiridol [1]; 0.0003162 µM): 1.01 GR
GR value (Flavopiridol [1]; 0.001 µM): 0.869 GR
GR value (Flavopiridol [1]; 0.003162 µM): 0.766 GR
GR value (Flavopiridol [1]; 0.01 µM): 0.972 GR
GR value (Flavopiridol [1]; 0.03162 µM): 0.821 GR
GR value (Flavopiridol [1]; 0.1 µM): 0.788 GR
GR value (Flavopiridol [1]; 0.3162 µM): 0.25 GR
GR value (Flavopiridol [1]; 1 µM): -0.298 GR
GR value (THZ1; 0.0001 µM): 0.979 GR
GR value (THZ1; 0.0003162 µM): 0.999 GR
GR value (THZ1; 0.001 µM): 0.995 GR
GR value (THZ1; 0.003162 µM): 0.857 GR
GR value (THZ1; 0.01 µM): 0.797 GR
GR value (THZ1; 0.03162 µM): 0.524 GR
GR value (THZ1; 0.1 µM): 0.216 GR
GR value (THZ1; 0.3162 µM): -0.218 GR
GR value (THZ1; 1 µM): -0.408 GR
GR value ([2]; 0.0003162 µM): 0.995 GR
GR value ([2]; 0.001 µM): 0.983 GR
GR value ([2]; 0.003162 µM): 0.933 GR
GR value ([2]; 0.01 µM): 0.791 GR
GR value ([2]; 0.03162 µM): 0.498 GR
GR value ([2]; 0.1 µM): 0.298 GR
GR value ([2]; 0.3162 µM): 0.17 GR
GR value ([2]; 1 µM): 0.178 GR
GR value ([2]; 3.162 µM): 0.121 GR
GR value (YKL-5-124; 0.001 µM): 0.597 GR
GR value (YKL-5-124; 0.003162 µM): 0.543 GR
GR value (YKL-5-124; 0.01 µM): 0.372 GR
GR value (YKL-5-124; 0.03162 µM): 0.396 GR
GR value (YKL-5-124; 0.1 µM): 0.338 GR
GR value (YKL-5-124; 0.3162 µM): 0.279 GR
GR value (YKL-5-124; 1 µM): 0.323 GR
GR value (YKL-5-124; 3.162 µM): 0.24 GR
GR value (YKL-5-124; 10 µM): -0.0052 GR
GR value (BSJ-03-123; 0.001 µM): 0.922 GR
GR value (BSJ-03-123; 0.003162 µM): 0.789 GR
GR value (BSJ-03-123; 0.01 µM): 0.714 GR
GR value (BSJ-03-123; 0.03162 µM): 0.825 GR
GR value (BSJ-03-123; 0.1 µM): 0.744 GR
GR value (BSJ-03-123; 0.3162 µM): 0.674 GR
GR value (BSJ-03-123; 1 µM): 0.61 GR
GR value (BSJ-03-123; 3.162 µM): 0.545 GR
GR value (BSJ-03-123; 10 µM): 0.181 GR
GR value (LEE011/Ribociclib; 0.001 µM): 0.708 GR
GR value (LEE011/Ribociclib; 0.003162 µM): 0.659 GR
GR value (LEE011/Ribociclib; 0.01 µM): 0.504 GR
GR value (LEE011/Ribociclib; 0.03162 µM): 0.395 GR
GR value (LEE011/Ribociclib; 0.1 µM): 0.287 GR
GR value (LEE011/Ribociclib; 0.3162 µM): 0.248 GR
GR value (LEE011/Ribociclib; 1 µM): 0.264 GR
GR value (LEE011/Ribociclib; 3.162 µM): 0.278 GR
GR value (LEE011/Ribociclib; 10 µM): 0.222 GR
GR value ([3]; 0.001 µM): 0.878 GR
GR value ([3]; 0.003162 µM): 0.833 GR
GR value ([3]; 0.01 µM): 0.478 GR
GR value ([3]; 0.03162 µM): 0.21 GR
GR value ([3]; 0.1 µM): 0.136 GR
GR value ([3]; 0.3162 µM): 0.113 GR
GR value ([3]; 1 µM): 0.086 GR
GR value ([3]; 3.162 µM): 0.0858 GR
GR value ([3]; 10 µM): 0.0092 GR
GR value ([4]; 0.0001 µM): 1.06 GR
GR value ([4]; 0.0003162 µM): 1.04 GR
GR value ([4]; 0.001 µM): 1.18 GR
GR value ([4]; 0.003162 µM): 1.2 GR
GR value ([4]; 0.01 µM): 0.935 GR
GR value ([4]; 0.03162 µM): -0.112 GR
GR value ([4]; 0.1 µM): -0.482 GR
GR value ([4]; 0.3162 µM): -0.48 GR
GR value ([4]; 1 µM): -0.484 GR
increase in dead-cell fraction (Flavopiridol [5]; 0.0001 µM): 0.0065
increase in dead-cell fraction (Flavopiridol [5]; 0.0003162 µM): 0.0005
increase in dead-cell fraction (Flavopiridol [5]; 0.001 µM): 0.0075
increase in dead-cell fraction (Flavopiridol [5]; 0.003162 µM): 0.0004
increase in dead-cell fraction (Flavopiridol [5]; 0.01 µM): -0.0008
increase in dead-cell fraction (Flavopiridol [5]; 0.03162 µM): 0.002
increase in dead-cell fraction (Flavopiridol [5]; 0.1 µM): 0.0078
increase in dead-cell fraction (Flavopiridol [5]; 0.3162 µM): 0.0072
increase in dead-cell fraction (Flavopiridol [5]; 1 µM): 0.0932
increase in dead-cell fraction ([6]; 0.001 µM): 0.0027
increase in dead-cell fraction ([6]; 0.003162 µM): 0.004
increase in dead-cell fraction ([6]; 0.01 µM): 0.0062
increase in dead-cell fraction ([6]; 0.03162 µM): 0.015
increase in dead-cell fraction ([6]; 0.1 µM): 0.0137
increase in dead-cell fraction ([6]; 0.3162 µM): 0.021
increase in dead-cell fraction ([6]; 1 µM): 0.0176
increase in dead-cell fraction ([6]; 3.162 µM): 0.0092
increase in dead-cell fraction ([6]; 10 µM): 0.0164
